Patent US20070149465A1, “COMPOSITIONS AND METHODS FOR PREVENTION AND TREATMENT OF CACHEXIA” (priority 2005, published 2007)

Columns and labels:
[1] = Aqueous stability of roxithromycin (% Purity by HPLC); type: physicochemical; conditions: 2 mg/mL, 40° C.
Procedure: Roxithromycin stability was determined for 2 mg/mL [roxithromycin] at 5, 25, and 40° C. as a function of pH and buffer (citrate) concentration. Roxithromycin %Purity was determined by area normalization using a reverse-phase HPLC method that meets the requirements of the EP Monograph. Solution pH values were determined per USP <791>.

[2] = test system: AH-inoculated rats; test: Rat AH130 Ascites Hepatoma Model of Cancer Cachexia, AH-inoculated rats; type: in vivo, female Wistar rats
Procedure: (§1) Following the method of Busquets et al (Busquets S, et al: Cancer Res 64:6725-31, 2004), female Wistar rats were inoculated (Day 0) intra-peritoneally (i.p.) with 2×10^7 cells/animal of Yoshida AH-130 ascites hepatoma (AH) cells. Control animals were inoculated with an equivalent amount of sterile saline solution. […] The animals were sacrificed on Day 5. Upon sacrifice, wet weights of heart and gastrocnemius muscle were determined. Carcass (after gastrocnemius, heart, and ascites removal) weight was also determined upon sacrifice.
(§2) Treatment Group=Inoculation Type/Vehicle, or Treatment Group=Inoculation Type/F(x)R(y) where, Inoculation Type is either AH or Saline, F is formoterol fumarate, R is roxithromycin, and the parenthetical values are formoterol fumarate and roxithromycin doses (i.p. in mg/kg).

[3] = test system: Saline-inoculated rats; test: Rat AH130 experiments, saline-inoculated control rats given drug; type: in vivo, female Wistar rats; conditions: for Carcass Weights Mean / Gastrocnemius Weights Mean / Heart Weights Mean: Saline, Day 5, normalized to 100 g Day 5 Total Body Weight
Procedure: as §1, §2

[4] = Exp 1 Group 4, AH, F 0, R 5 mg/kg i.p., Day 5, normalized to 100 g Day 5 Total Body Weight
[5] = Exp 4 Group 21, AH, F 0, R 50 mg/kg i.p., Day 5, sample weight normalized to 100 g Day 5 Total Body Weight
[6] = Experiment 4, AH/F(0)R(50) group
[7] = Exp 2 Group 9, F 0, R 5 mg/kg i.p.
[8] = Exp 3 Group 15, F 0, R 40 mg/kg i.p.

CC[C@H]1OC(=O)[C@H](C)[C@@H](O[C@H]2C[C@@](C)(OC)[C@@H](O)[C@H](C)O2)[C@H](C)[C@@H](O[C@@H]2O[C@H](C)C[C@H](N(C)C)[C@H]2O)[C@](C)(O)C[C@@H](C)/C(=N\OCOCCOC)[C@H](C)[C@@H](O)[C@]1(C)O [roxithromycin]
Roxithromycin % Purity By Area Normalization ([1]; citrate pH 5, 20 mM, 0 mo): 96%
Roxithromycin % Purity By Area Normalization ([1]; citrate pH 5, 20 mM, 0.3 mo): 74%
Roxithromycin % Purity By Area Normalization ([1]; citrate pH 5, 20 mM, 0.5 mo): 66%
Roxithromycin % Purity By Area Normalization ([1]; citrate pH 5, 20 mM, 0.9 mo): 60%
Roxithromycin % Purity By Area Normalization ([1]; citrate pH 5, 20 mM, 1.5 mo): 50%
Roxithromycin % Purity By Area Normalization ([1]; citrate pH 5, 20 mM, 2.6 mo): 36%
Roxithromycin % Purity By Area Normalization ([1]; citrate pH 5, 20 mM, 5.3 mo): 21%
Roxithromycin % Purity By Area Normalization ([1]; citrate pH 5, 50 mM, 0 mo): 92%
Roxithromycin % Purity By Area Normalization ([1]; citrate pH 5, 50 mM, 0.3 mo): 66%
Roxithromycin % Purity By Area Normalization ([1]; citrate pH 5, 50 mM, 0.5 mo): 55%
Roxithromycin % Purity By Area Normalization ([1]; citrate pH 5, 50 mM, 0.9 mo): 44%
Roxithromycin % Purity By Area Normalization ([1]; citrate pH 5, 50 mM, 1.5 mo): 28%
Roxithromycin % Purity By Area Normalization ([1]; citrate pH 5, 50 mM, 2.6 mo): 13%
Roxithromycin % Purity By Area Normalization ([1]; citrate pH 5, 50 mM, 5.3 mo): 3%
Roxithromycin % Purity By Area Normalization ([1]; citrate pH 5, 100 mM, 0 mo): 90%
Roxithromycin % Purity By Area Normalization ([1]; citrate pH 5, 100 mM, 0.3 mo): 60%
Roxithromycin % Purity By Area Normalization ([1]; citrate pH 5, 100 mM, 0.5 mo): 46%
Roxithromycin % Purity By Area Normalization ([1]; citrate pH 5, 100 mM, 0.9 mo): 31%
Roxithromycin % Purity By Area Normalization ([1]; citrate pH 5, 100 mM, 1.5 mo): 14%
Roxithromycin % Purity By Area Normalization ([1]; citrate pH 5, 100 mM, 2.6 mo): 4%
Roxithromycin % Purity By Area Normalization ([1]; citrate pH 6, 20 mM, 0 mo): 98%
Roxithromycin % Purity By Area Normalization ([1]; citrate pH 6, 20 mM, 0.3 mo): 95%
Roxithromycin % Purity By Area Normalization ([1]; citrate pH 6, 20 mM, 0.5 mo): 92%
Roxithromycin % Purity By Area Normalization ([1]; citrate pH 6, 20 mM, 0.9 mo): 89%
Roxithromycin % Purity By Area Normalization ([1]; citrate pH 6, 20 mM, 1.5 mo): 84%
Roxithromycin % Purity By Area Normalization ([1]; citrate pH 6, 20 mM, 2.6 mo): 79%
Roxithromycin % Purity By Area Normalization ([1]; citrate pH 6, 20 mM, 5.3 mo): 76%
Roxithromycin % Purity By Area Normalization ([1]; citrate pH 6, 50 mM, 0 mo): 98%
Roxithromycin % Purity By Area Normalization ([1]; citrate pH 6, 50 mM, 0.3 mo): 89%
Roxithromycin % Purity By Area Normalization ([1]; citrate pH 6, 50 mM, 0.5 mo): 82%
Roxithromycin % Purity By Area Normalization ([1]; citrate pH 6, 50 mM, 0.9 mo): 77%
Roxithromycin % Purity By Area Normalization ([1]; citrate pH 6, 50 mM, 1.5 mo): 71%
Roxithromycin % Purity By Area Normalization ([1]; citrate pH 6, 50 mM, 2.6 mo): 65%
Roxithromycin % Purity By Area Normalization ([1]; citrate pH 6, 50 mM, 5.3 mo): 61%
Roxithromycin % Purity By Area Normalization ([1]; citrate pH 6, 100 mM, 0 mo): 98%
Roxithromycin % Purity By Area Normalization ([1]; citrate pH 6, 100 mM, 0.3 mo): 85%
Roxithromycin % Purity By Area Normalization ([1]; citrate pH 6, 100 mM, 0.5 mo): 77%
Roxithromycin % Purity By Area Normalization ([1]; citrate pH 6, 100 mM, 0.9 mo): 72%
Roxithromycin % Purity By Area Normalization ([1]; citrate pH 6, 100 mM, 1.5 mo): 66%
Roxithromycin % Purity By Area Normalization ([1]; citrate pH 6, 100 mM, 2.6 mo): 58%
Roxithromycin % Purity By Area Normalization ([1]; citrate pH 6, 100 mM, 5.3 mo): 48%
Carcass Weights Mean [2, 4]: 94.35 g
Gastrocnemius Weights Mean [2, 4]: 0.493 g
Heart Weights Mean [2, 4]: 0.320 g
Carcass Mean [2, 5]: 94.1
Gastrocnemius Mean [2, 5]: 0.500
Heart Mean [2, 5]: 0.338
gastrocnemius muscle loss compared with AH/vehicle group ([2]; Experiment 1, AH/F(0)R(5) group): approximately the same amount
gastrocnemius muscle weights compared with AH/vehicle group [2, 6]: significantly larger
gastrocnemius weights compared with AH/F(1)R(0) group [2, 6]: essentially identical
gastrocnemius weights compared with AH/F(1)R(50) group [2, 6]: slightly less
muscle wasting associated with the AH rat model ([2]; summary of Experiments 1-4): prevents muscle wasting
preventing AH-induced gastrocnemius muscle loss, roxithromycin alone compared with formoterol fumarate alone ([2]; summary of Experiments 1-4): effective as formoterol fumarate alone
Carcass Weights Mean [3, 7]: 97.6 g
Gastrocnemius Weights Mean [3, 7]: 0.575 g
Heart Weights Mean [3, 7]: 0.390 g
Carcass Weights Mean [3, 8]: 96.5 g
Gastrocnemius Weights Mean [3, 8]: 0.529 g
Heart Weights Mean [3, 8]: 0.400 g
gastrocnemius muscle weights compared with Saline/vehicle group ([3]; Experiment 2, Saline/F(0)R(5) group): approximately the same
gastrocnemius muscle weights compared with Saline/vehicle control group ([3]; Experiment 3, Saline/F(0)R(40) group): not different
